Test system: non small cell lung cancer (NSCLC)
Experiment: clinical study in non small cell lung cancer: survival with statins in addition to TTFields
Assay type: in vivo, human
Conditions: statin plus Docetaxel plus TTFields compared to the same statin plus Docetaxel; FIGS. 5-7
Source text: In some aspects, the materials and methods described in Leal et al. “Tumor Treating Fields therapy with standard systemic therapy versus standard systemic therapy alone in metastatic non-small-cell lung cancer following progression on or after platinum-based therapy (LUNAR): a randomised, open-label, pivotal phase 3 study” Lancet Oncol. 2023 September; 24(9):1002-1017 can be used, such methods and materials are hereby incorporated by reference in its entirety herein. The disclosed experiments were based on a clinical trial in which subjects received Docetaxel or a combination of Docetaxel and TTFields. The patients also received statins during the clinical trial. The statins were not part of the clinical trial, however, the patients were previously on statins due to the chronic condition and continued to receive statins.

SMILES: CC(C)c1nc(N(C)S(C)(=O)=O)nc(-c2ccc(F)cc2)c1/C=C/[C@@H](O)C[C@@H](O)CC(=O)O [Rosuvastatin, rosuvastatin]
- median survival of patients: increase in median survival

SMILES: CC(C)c1c(C(=O)Nc2ccccc2)c(-c2ccccc2)c(-c2ccc(F)cc2)n1CC[C@@H](O)C[C@@H](O)CC(=O)O [Atorvastatin, atorvastatin]
- median survival of patients: increase in median survival
